Earlier results on one compound are cited in patent US11234933B1, “Surface-modified emulsomes for intranasal delivery of drugs” (King Abdulaziz University, priority 2020, dated 2022).

The conditions of the data set: oral route, first pass.

Consider `CCOC(=O)C1=C[C@]2(CC)CCCN3CCc4c(n1c1ccccc41)[C@@H]32` [VIN, Vinpocetine], for which the VIN hepatic metabolism is approximately 75%.
